Test results as given in ChEMBL document CHEMBL1201862, “PubChem BioAssay data set” (2004).
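96-well plates; 48 h exposure; 5 concentrations. Endpoints by linear interpolation between flanking doses. Not reached: highest tested concentration assigned. At the GI50, growth is halved.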 Calls of active or inactive are those of the source. No stated cut-off is given here; in the data, active = GI50 up to about 1.1 µM and inactive = higher.

Legend:
Experiment in all cases: DTP human tumour cell line panel, 48 h
SK-MEL-5 = system: SK-MEL-5
Hs-578T = system: Hs-578T
K562 = system: K562
HCT-15 = system: HCT-15
T47D = system: T47D
SK-MEL-2 = system: SK-MEL-2
NCI-H23 = system: NCI-H23
SK-OV-3 = system: SK-OV-3
CCRF-CEM = system: CCRF-CEM
UACC-62 = system: UACC-62
KM12 = system: KM12
EKVX = system: EKVX
SNB-19 = system: SNB-19
DU-145 = system: DU-145
OVCAR-5 = system: OVCAR-5
NCI-H226 = system: NCI-H226
MDA-MB-231 = system: MDA-MB-231
CAKI-1 = system: CAKI-1
SN12C = system: SN12C

CC1CCC2C(C(=O)O[C@H]3C4C=CO[C@@H](OC5OC(CO)C(O)C(O)C5O)C4[C@@]4(CO)O[C@@H]34)=CO[C@@H](OC3OC(CO)C(O)C(O)C3O)C12 (stereo partly drawn)
GI50 (SK-MEL-5): > 10 µM (inactive) | GI50 (Hs-578T): > 10 µM (inactive) | GI50 (K562): > 10 µM (inactive) | GI50 (HCT-15): > 10 µM | GI50 (T47D): > 10 µM (inactive) | GI50 (SK-MEL-2): > 10 µM (inactive) | GI50 (NCI-H23): > 10 µM (inactive) | GI50 (SK-OV-3): > 10 µM (inactive) | GI50 (CCRF-CEM): > 10 µM (inactive) | GI50 (UACC-62): > 10 µM (inactive) | GI50 (KM12): > 10 µM (inactive) | GI50 (EKVX): > 10 µM (inactive) | GI50 (SNB-19): > 10 µM (inactive) | GI50 (DU-145): > 10 µM (inactive) | GI50 (OVCAR-5): > 10 µM (inactive) | GI50 (NCI-H226): > 10 µM (inactive) | GI50 (MDA-MB-231): > 10 µM (inactive) | GI50 (CAKI-1): > 10 µM (inactive) | GI50 (SN12C): > 10 µM (inactive)

O=C(NC(Nc1ccc(F)c(Cl)c1)(C(F)(F)F)C(F)(F)F)OCc1ccccc1
GI50 (SK-MEL-5): 44.1 µM (inactive) | GI50 (Hs-578T): 51.2 µM (inactive) | GI50 (K562): 10.8 µM (inactive) | GI50 (HCT-15): 22.4 µM | GI50 (T47D): 28.1 µM (inactive) | GI50 (SK-MEL-2): 69.3 µM (inactive) | GI50 (NCI-H23): 71.4 µM (inactive) | GI50 (SK-OV-3): 26 µM (inactive) | GI50 (CCRF-CEM): 15.8 µM (inactive) | GI50 (UACC-62): 17.7 µM (inactive) | GI50 (KM12): 36.3 µM (inactive) | GI50 (EKVX): 26.4 µM (inactive) | GI50 (SNB-19): 20.9 µM (inactive) | GI50 (DU-145): 24.4 µM (inactive) | GI50 (OVCAR-5): > 100 µM (inactive) | GI50 (NCI-H226): > 100 µM (inactive) | GI50 (MDA-MB-231): 11.7 µM (inactive) | GI50 (CAKI-1): 34.6 µM (inactive) | GI50 (SN12C): 31.2 µM (inactive)

CNC(=O)c1nn[nH]c1O
GI50 (SK-MEL-5): > 100 µM (inactive) | GI50 (Hs-578T): 98.4 µM (inactive) | GI50 (K562): > 100 µM (inactive) | GI50 (HCT-15): > 100 µM | GI50 (T47D): > 100 µM (inactive) | GI50 (SK-MEL-2): > 100 µM (inactive) | GI50 (NCI-H23): > 100 µM (inactive) | GI50 (SK-OV-3): > 100 µM (inactive) | GI50 (CCRF-CEM): > 100 µM (inactive) | GI50 (UACC-62): > 100 µM (inactive) | GI50 (KM12): > 100 µM (inactive) | GI50 (EKVX): > 100 µM (inactive) | GI50 (SNB-19): > 100 µM (inactive) | GI50 (DU-145): > 100 µM (inactive) | GI50 (OVCAR-5): > 100 µM (inactive) | GI50 (NCI-H226): > 100 µM (inactive) | GI50 (MDA-MB-231): > 100 µM (inactive) | GI50 (CAKI-1): > 100 µM (inactive) | GI50 (SN12C): > 100 µM (inactive)

CCc1nc(N)nc(N)c1-c1ccc(N2CCOCC2)c(N=[N+]=[N-])c1
GI50 (SK-MEL-5): 37.2 µM (inactive) | GI50 (Hs-578T): > 100 µM (inactive) | GI50 (K562): 8.79 µM (inactive) | GI50 (HCT-15): 20.3 µM | GI50 (T47D): > 92.7 µM (inactive) | GI50 (SK-MEL-2): > 100 µM (inactive) | GI50 (NCI-H23): 37.2 µM (inactive) | GI50 (SK-OV-3): > 100 µM (inactive) | GI50 (CCRF-CEM): 53.8 µM (inactive) | GI50 (UACC-62): 47 µM (inactive) | GI50 (KM12): 70.5 µM (inactive) | GI50 (EKVX): 66.7 µM (inactive) | GI50 (SNB-19): 38.3 µM (inactive) | GI50 (DU-145): > 82.8 µM (inactive) | GI50 (OVCAR-5): > 100 µM (inactive) | GI50 (NCI-H226): 98.2 µM (inactive) | GI50 (MDA-MB-231): > 100 µM (inactive) | GI50 (CAKI-1): 62.2 µM (inactive) | GI50 (SN12C): > 80.5 µM (inactive)

CCCCCCCCCCCCc1ccsc1-c1ccc(-c2ccc(-c3sccc3CCCCCCCCCCCC)s2)s1
GI50 (SK-MEL-5): > 100 µM (inactive) | GI50 (Hs-578T): > 100 µM (inactive) | GI50 (K562): > 100 µM (inactive) | GI50 (HCT-15): > 100 µM | GI50 (T47D): > 100 µM (inactive) | GI50 (SK-MEL-2): > 100 µM (inactive) | GI50 (NCI-H23): > 100 µM (inactive) | GI50 (SK-OV-3): > 100 µM (inactive) | GI50 (CCRF-CEM): > 100 µM (inactive) | GI50 (UACC-62): > 100 µM (inactive) | GI50 (KM12): > 100 µM (inactive) | GI50 (EKVX): > 100 µM (inactive) | GI50 (SNB-19): > 100 µM (inactive) | GI50 (DU-145): > 100 µM (inactive) | GI50 (OVCAR-5): > 100 µM (inactive) | GI50 (NCI-H226): > 100 µM (inactive) | GI50 (MDA-MB-231): > 100 µM (inactive) | GI50 (CAKI-1): > 100 µM (inactive) | GI50 (SN12C): > 100 µM (inactive)

Cc1ccc(/C=N/Nc2cc(C)c3ccccc3n2)s1
GI50 (SK-MEL-5): 8.3 µM (inactive) | GI50 (Hs-578T): 31.5 µM (inactive) | GI50 (K562): 7 µM (inactive) | GI50 (HCT-15): 7.36 µM | GI50 (T47D): 5.48 µM (inactive) | GI50 (SK-MEL-2): 34.1 µM (inactive) | GI50 (NCI-H23): 17.5 µM (inactive) | GI50 (SK-OV-3): 19.3 µM (inactive) | GI50 (CCRF-CEM): 13.1 µM (inactive) | GI50 (UACC-62): 23.4 µM (inactive) | GI50 (KM12): 16.4 µM (inactive) | GI50 (EKVX): 4.84 µM (inactive) | GI50 (SNB-19): 41.6 µM (inactive) | GI50 (DU-145): > 10 µM (inactive) | GI50 (OVCAR-5): 15.6 µM (inactive) | GI50 (NCI-H226): 14 µM (inactive) | GI50 (MDA-MB-231): 0.44 µM (active) | GI50 (CAKI-1): 11.4 µM (inactive) | GI50 (SN12C): 13.1 µM (inactive)

O=[N+]([O-])c1ccc(NN/N=N/c2ccc(-c3nc4ccccc4[nH]3)cc2)c([N+](=O)[O-])c1
GI50 (SK-MEL-5): 10.4 µM (inactive) | GI50 (Hs-578T): 64.9 µM (inactive) | GI50 (K562): 6.52 µM (inactive) | GI50 (HCT-15): 19.7 µM | GI50 (T47D): 30.1 µM (inactive) | GI50 (SK-MEL-2): 29 µM (inactive) | GI50 (NCI-H23): 29 µM (inactive) | GI50 (SK-OV-3): 94.6 µM (inactive) | GI50 (CCRF-CEM): 9.04 µM (inactive) | GI50 (UACC-62): 4.06 µM (inactive) | GI50 (KM12): 31.9 µM (inactive) | GI50 (EKVX): 17.4 µM (inactive) | GI50 (SNB-19): > 100 µM (inactive) | GI50 (DU-145): 66.1 µM (inactive) | GI50 (OVCAR-5): > 100 µM (inactive) | GI50 (NCI-H226): 43.2 µM (inactive) | GI50 (MDA-MB-231): > 100 µM (inactive) | GI50 (CAKI-1): 23.2 µM (inactive) | GI50 (SN12C): 64.6 µM (inactive)
